Results published in patent US12371428B2 (Exelixis, Inc., priority 2019, dated 2025).
Read-outs that look alike come from different tables or passages of the source.

Key:
Type in all cases: cell-based
[1] = target: AXL (phospho-AXL, Gas6-stimulated A-172 glioblastoma cells) (Homo sapiens (Human), UniProt P30530); experiment: AXL autophosphorylation ELISA in A-172 cells (Example E); settings: cellular activity, read-out: Axl IC50
Procedure, shortened: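 Phospho-AXL was measured by ELISA in lysates of Gas6-stimulated A-172 cells, starved 24 h in serum-free medium and exposed 1 h to an 8-point compound dilution at 0.3% DMSO.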

[2] = target: Mer (phospho-Mer, MERTK-transfected 293A cells) (Homo sapiens (Human), UniProt Q12866); experiment: Mer autophosphorylation ELISA in transient transfected 293A cells (Example H); settings: cellular activity
Sequence of Mer (phospho-Mer, MERTK-transfected 293A cells) (Q12866 21-999): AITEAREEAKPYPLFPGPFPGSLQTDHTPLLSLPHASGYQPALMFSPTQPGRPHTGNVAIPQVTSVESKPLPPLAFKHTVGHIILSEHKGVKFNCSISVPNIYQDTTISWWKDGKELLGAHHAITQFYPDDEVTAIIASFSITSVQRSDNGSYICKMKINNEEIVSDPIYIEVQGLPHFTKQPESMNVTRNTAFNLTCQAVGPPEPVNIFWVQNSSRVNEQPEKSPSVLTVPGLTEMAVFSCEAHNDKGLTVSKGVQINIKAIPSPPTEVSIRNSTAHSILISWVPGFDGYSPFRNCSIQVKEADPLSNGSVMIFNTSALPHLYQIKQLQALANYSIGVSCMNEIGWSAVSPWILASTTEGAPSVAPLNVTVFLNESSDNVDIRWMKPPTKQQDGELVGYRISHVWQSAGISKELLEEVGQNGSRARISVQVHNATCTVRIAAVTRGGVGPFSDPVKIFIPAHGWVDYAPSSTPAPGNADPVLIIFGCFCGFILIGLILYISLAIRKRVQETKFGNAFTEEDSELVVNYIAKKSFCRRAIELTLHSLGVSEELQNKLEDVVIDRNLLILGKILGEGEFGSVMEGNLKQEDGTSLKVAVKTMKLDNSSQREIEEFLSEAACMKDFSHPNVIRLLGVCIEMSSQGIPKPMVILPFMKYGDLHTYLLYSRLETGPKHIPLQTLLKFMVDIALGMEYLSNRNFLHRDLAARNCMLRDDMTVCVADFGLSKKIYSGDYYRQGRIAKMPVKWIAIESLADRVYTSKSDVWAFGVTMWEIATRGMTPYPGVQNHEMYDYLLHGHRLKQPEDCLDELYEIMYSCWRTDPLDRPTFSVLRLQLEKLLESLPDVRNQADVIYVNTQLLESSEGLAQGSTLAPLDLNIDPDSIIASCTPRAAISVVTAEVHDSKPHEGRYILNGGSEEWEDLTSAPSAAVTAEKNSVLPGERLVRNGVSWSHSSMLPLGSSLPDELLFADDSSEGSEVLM
Procedure, shortened: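 IC50 from phospho-Mer ELISA of MERTK-transfected 293A cell lysates after 1 h treatment with serially diluted compound in serum-free medium.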

[3] = target: Met (phospho-Met, HGF-stimulated PC-3 prostate cancer cells) (Homo sapiens (Human), UniProt P08581); experiment: Met autophosphorylation ELISA in PC-3 cells (Example F); settings: cellular activity, read-out: c-Met IC50
Sequence of Met (phospho-Met, HGF-stimulated PC-3 prostate cancer cells) (P08581 25-1390): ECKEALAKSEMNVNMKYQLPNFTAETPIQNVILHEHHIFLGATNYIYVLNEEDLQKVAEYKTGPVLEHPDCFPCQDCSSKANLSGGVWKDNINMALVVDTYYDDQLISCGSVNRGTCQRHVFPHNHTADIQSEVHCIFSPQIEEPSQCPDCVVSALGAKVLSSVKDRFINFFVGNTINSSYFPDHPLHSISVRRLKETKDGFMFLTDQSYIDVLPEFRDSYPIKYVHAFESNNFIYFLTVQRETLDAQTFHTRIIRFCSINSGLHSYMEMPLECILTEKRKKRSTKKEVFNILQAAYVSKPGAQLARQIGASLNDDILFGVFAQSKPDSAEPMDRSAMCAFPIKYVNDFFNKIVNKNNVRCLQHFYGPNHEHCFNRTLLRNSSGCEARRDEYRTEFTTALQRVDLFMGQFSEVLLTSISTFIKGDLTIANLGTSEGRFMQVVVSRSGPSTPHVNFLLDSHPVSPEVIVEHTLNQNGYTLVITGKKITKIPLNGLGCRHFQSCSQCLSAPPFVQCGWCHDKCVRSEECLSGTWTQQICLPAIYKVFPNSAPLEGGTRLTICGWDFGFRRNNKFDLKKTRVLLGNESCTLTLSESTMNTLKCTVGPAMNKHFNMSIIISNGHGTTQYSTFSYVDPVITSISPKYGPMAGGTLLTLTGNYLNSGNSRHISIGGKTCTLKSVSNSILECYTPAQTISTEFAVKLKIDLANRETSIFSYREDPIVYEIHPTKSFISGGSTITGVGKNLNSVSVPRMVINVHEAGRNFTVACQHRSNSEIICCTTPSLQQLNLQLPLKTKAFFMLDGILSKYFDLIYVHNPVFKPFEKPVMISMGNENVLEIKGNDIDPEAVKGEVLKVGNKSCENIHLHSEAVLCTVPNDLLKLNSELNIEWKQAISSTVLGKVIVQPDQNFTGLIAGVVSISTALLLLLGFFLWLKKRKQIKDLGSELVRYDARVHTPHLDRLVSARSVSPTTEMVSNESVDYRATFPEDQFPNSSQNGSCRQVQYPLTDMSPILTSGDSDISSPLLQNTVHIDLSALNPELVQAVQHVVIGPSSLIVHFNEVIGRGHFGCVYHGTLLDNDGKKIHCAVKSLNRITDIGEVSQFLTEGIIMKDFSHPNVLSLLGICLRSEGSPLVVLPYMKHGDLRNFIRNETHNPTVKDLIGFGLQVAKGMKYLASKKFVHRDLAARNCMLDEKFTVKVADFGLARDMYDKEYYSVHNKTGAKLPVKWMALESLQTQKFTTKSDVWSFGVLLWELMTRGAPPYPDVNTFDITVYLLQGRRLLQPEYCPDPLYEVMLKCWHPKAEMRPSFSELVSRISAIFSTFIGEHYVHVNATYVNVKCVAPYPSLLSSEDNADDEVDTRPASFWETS
Procedure, shortened: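 Serum-starved (3 h) PC-3 cells were treated 1 h with compounds (8-point curve, 0.3% DMSO), then stimulated with 100 ng/mL human HGF for 10 min. Lysate phospho-Met (panTyr) was measured by sandwich ELISA, normalised to DMSO and reference-inhibitor controls. IC50 came from 4-parameter logistic fit.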

[4] = target: KDR (phospho-KDR, VEGF165-stimulated HUVEC cells) (Homo sapiens (Human), UniProt P35968); experiment: KDR autophosphorylation ELISA in HUVEC cells (Example G); settings: cellular activity
Sequence of KDR (phospho-KDR, VEGF165-stimulated HUVEC cells) (P35968 20-1356): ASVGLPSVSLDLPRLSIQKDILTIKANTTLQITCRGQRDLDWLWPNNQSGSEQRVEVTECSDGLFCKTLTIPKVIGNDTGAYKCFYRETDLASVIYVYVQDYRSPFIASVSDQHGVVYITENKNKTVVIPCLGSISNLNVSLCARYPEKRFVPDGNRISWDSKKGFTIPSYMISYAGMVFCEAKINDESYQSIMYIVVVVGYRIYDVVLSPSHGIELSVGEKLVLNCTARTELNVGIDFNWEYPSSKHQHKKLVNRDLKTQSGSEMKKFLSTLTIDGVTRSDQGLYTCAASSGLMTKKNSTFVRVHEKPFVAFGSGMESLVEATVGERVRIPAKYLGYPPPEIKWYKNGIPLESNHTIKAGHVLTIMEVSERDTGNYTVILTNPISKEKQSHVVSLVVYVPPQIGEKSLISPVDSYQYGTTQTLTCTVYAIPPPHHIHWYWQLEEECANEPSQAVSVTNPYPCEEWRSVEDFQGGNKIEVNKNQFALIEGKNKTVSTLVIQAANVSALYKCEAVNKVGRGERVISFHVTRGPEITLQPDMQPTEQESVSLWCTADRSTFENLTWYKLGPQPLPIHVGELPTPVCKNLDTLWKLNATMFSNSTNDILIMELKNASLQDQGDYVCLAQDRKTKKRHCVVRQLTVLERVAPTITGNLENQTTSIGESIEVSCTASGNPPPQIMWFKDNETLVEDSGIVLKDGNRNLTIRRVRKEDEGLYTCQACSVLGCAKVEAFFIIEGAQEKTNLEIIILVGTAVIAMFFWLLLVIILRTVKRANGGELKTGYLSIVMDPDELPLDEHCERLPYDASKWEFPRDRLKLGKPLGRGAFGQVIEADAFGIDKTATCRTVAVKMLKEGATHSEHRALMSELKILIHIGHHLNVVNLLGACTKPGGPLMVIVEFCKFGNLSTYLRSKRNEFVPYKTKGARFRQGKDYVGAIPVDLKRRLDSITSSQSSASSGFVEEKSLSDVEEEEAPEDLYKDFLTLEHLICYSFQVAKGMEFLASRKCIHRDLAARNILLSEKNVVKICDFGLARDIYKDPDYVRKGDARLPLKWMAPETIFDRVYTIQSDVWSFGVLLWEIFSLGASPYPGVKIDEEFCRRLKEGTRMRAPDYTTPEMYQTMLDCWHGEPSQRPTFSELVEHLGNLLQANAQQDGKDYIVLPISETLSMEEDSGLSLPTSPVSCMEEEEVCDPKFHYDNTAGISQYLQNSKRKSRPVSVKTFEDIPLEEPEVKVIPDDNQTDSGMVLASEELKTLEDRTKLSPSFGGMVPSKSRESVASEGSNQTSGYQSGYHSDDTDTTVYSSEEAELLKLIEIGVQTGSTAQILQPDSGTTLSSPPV
Procedure, shortened: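 Read-out: phospho-KDR in cell lysates by DuoSet IC ELISA, normalised between VEGF-stimulated DMSO wells (100%) and unstimulated wells (0%). Human endothelial cells were starved overnight in serum-free medium, exposed to compound for 1 h, and then pulsed with 100 ng/mL VEGF165 for 5 min.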

[5] = AXL autophosphorylation ELISA in A-172 cells
[6] = Mer autophosphorylation ELISA in transient transfected 293A cells
[7] = Met autophosphorylation ELISA in PC-3 cells
[8] = KDR autophosphorylation ELISA in HUVEC cells

Sequence of AXL (phospho-AXL, Gas6-stimulated A-172 glioblastoma cells) (P30530 26-894): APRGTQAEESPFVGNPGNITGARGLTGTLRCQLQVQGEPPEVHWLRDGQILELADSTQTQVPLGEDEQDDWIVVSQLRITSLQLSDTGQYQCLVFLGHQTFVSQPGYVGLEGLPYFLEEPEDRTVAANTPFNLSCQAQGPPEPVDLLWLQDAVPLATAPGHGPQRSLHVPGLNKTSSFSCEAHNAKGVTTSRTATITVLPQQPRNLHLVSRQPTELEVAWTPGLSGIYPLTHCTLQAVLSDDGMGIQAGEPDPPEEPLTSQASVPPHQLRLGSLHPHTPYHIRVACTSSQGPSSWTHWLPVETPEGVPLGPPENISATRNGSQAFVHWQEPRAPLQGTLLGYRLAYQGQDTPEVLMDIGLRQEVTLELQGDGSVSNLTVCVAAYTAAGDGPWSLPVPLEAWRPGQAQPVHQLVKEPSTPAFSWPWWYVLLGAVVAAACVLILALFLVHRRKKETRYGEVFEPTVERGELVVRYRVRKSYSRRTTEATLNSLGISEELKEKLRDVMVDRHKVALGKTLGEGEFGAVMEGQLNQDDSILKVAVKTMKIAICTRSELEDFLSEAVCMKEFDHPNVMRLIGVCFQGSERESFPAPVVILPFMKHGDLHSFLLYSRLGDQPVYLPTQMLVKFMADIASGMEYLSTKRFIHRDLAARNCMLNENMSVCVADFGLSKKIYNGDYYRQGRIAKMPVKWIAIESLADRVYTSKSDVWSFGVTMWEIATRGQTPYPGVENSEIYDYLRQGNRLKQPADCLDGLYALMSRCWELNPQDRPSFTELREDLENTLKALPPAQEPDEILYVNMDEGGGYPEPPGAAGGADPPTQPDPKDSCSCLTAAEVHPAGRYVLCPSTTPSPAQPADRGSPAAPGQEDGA

IC50 [1, 5] [µM]	IC50 [2, 6] [µM]	IC50 [3, 7] [µM]	IC50 [4, 8] [µM]	IC50 ([1]; A-172 cells) [µM]	IC50 ([2]; transfected 293A cells) [µM]	IC50 ([3]; PC-3 cells) [µM]	IC50 ([4]; HUVEC cells) [µM]	SMILES
< 0.1	< 0.1	< 0.1	> 0.3	–	–	–	–	CCc1c(C)c(C(=O)Nc2ccc(Oc3ccnc4cc(OC)cnc34)c(F)c2)c(=O)n(-c2ccc(F)cc2)c1C [Compound 335, 5-ethyl-N-[3-fluoro-4-[(7-methoxy-1,5-naphthyridin-4-yl)oxy]phenyl]-1-(4-fluorophenyl)-4,6-dimethyl-2-oxopyridine-3-carboxamide]
< 0.1	< 0.1	< 0.1	0.1 to 0.3	–	–	–	–	COc1cc2nccc(Oc3ccc(NC(=O)c4cn5c(c(-c6ccc(F)cc6)c4=O)COCC5)cc3)c2nc1OC [Compound 660, N-[4-[(6,7-dimethoxy-1,5-naphthyridin-4-yl)oxy]phenyl]-9-(4-fluorophenyl)-8-oxo-3,4-dihydro-1H-pyrido[2,1-c][1,4]oxazine-7-carboxamide]
0.1 to 0.3	< 0.1	< 0.1	< 0.1	–	–	–	–	COc1cnc2c(Oc3ccc(NC(=O)c4c(C)nc(C)c(-c5ccc(OC)c(C)c5)c4O)cc3F)ccnc2c1 [Compound 692, N-[3-fluoro-4-[(7-methoxy-1,5-naphthyridin-4-yl)oxy]phenyl]-4-hydroxy-5-(4-methoxy-3-methylphenyl)-2,6-dimethylpyridine-3-carboxamide]
< 0.1	< 0.1	< 0.1	< 0.1	–	–	–	–	COCCOc1nc2c(Oc3ccc(NC(=O)c4ccc(C)n(-c5ccc(F)cc5)c4=O)cc3F)ncnc2cc1OC [Compound 650, N-[3-fluoro-4-[7-methoxy-6-(2-methoxyethoxy)pyrido[3,2-d]pyrimidin-4-yl]oxyphenyl]-1-(4-fluorophenyl)-6-methyl-2-oxopyridine-3-carboxamide]
< 0.1	< 0.1	< 0.1	< 0.1	–	–	–	–	COc1cc2nccc(Oc3ccc(NC(=O)c4cn5c(c(-c6ccc(F)cc6)c4=O)CCC5)cc3F)c2nc1OC [Compound 362, N-[4-[(6,7-dimethoxy-1,5-naphthyridin-4-yl)oxy]-3-fluorophenyl]-8-(4-fluorophenyl)-7-oxo-2,3-dihydro-1H-indolizine-6-carboxamide]
< 0.1	< 0.1	< 0.1	> 0.3	–	–	–	–	COc1cnc2c(Oc3ccc(NC(=O)c4c(C)n(C)c(C)c(-c5ccc(F)cc5C)c4=O)cc3F)ccnc2c1 [Compound 771, N-[3-fluoro-4-[(7-methoxy-1,5-naphthyridin-4-yl)oxy]phenyl]-5-(4-fluoro-2-methylphenyl)-1,2,6-trimethyl-4-oxopyridine-3-carboxamide]
> 0.3	< 0.1	< 0.1	> 0.3	–	–	–	–	COc1cnc2c(Oc3ccc(NC(=O)c4c(C)c(C)nn(-c5ccc(F)cc5)c4=O)cc3)ccnc2c1 [Compound 733, 2-(4-fluorophenyl)-N-[4-[(7-methoxy-1,5-naphthyridin-4-yl)oxy]phenyl]-5,6-dimethyl-3-oxopyridazine-4-carboxamide]
< 0.1	< 0.1	< 0.1	< 0.1	–	–	–	–	C=Cc1c(C)c(C(=O)Nc2ccc(Oc3ccnc4cc(OC)c(OC)nc34)c(F)c2)c(=O)n(-c2ccc(F)cc2)c1C [Compound 327, N-[4-[(6,7-Dimethoxy-1,5-naphthyridin-4-yl)oxy]-3-fluorophenyl]-5-ethenyl-1-(4-fluorophenyl)-4,6-dimethyl-2-oxopyridine-3-carboxamide]
< 0.1	< 0.1	< 0.1	> 0.3	–	–	–	–	COc1cc2nccc(Oc3ccc(NC(=O)c4c(C)c(C(N)=O)c(C)n(-c5ccc(F)cc5)c4=O)cc3F)c2nc1OC [Compound 318, 5-N-[4-[(6,7-Dimethoxy-1,5-naphthyridin-4-yl)oxy]-3-fluorophenyl]-1-(4-fluorophenyl)-2,4-dimethyl-6-oxopyridine-3,5-dicarboxamide]
> 0.3	< 0.1	0.1 to 0.3	> 0.3	–	–	–	–	COc1cnc2c(Oc3ccc(NC(=O)c4c(C)nc(C)c(-c5ccc(S(C)(=O)=O)cc5)c4O)cc3F)ccnc2c1 [Compound 694, N-[3-fluoro-4-[(7-methoxy-1,5-naphthyridin-4-yl)oxy]phenyl]-4-hydroxy-2,6-dimethyl-5-(4-methylsulfonylphenyl)pyridine-3-carboxamide]
–	–	–	–	< 0.1	< 0.1	< 0.1	0.1 to 0.3	COc1cc2nccc(Oc3ccc(NC(=O)c4c(C)n(CCF)cc(-c5ccc(F)c(F)c5)c4=O)cc3F)c2nc1OC [Compound 815, 5-(3,4-difluorophenyl)-N-[4-[(6,7-dimethoxy-1,5-naphthyridin-4-yl)oxy]-3-fluorophenyl]-1-(2-fluoroethyl)-2-methyl-4-oxopyridine-3-carboxamide]
< 0.1	< 0.1	< 0.1	> 0.3	–	–	–	–	COc1cnc2c(Oc3ccc(NC(=O)c4cc(C(C)=O)c(C)n(-c5ccc(F)cc5)c4=O)cc3F)ccnc2c1 [Compound 656, 5-acetyl-N-[3-fluoro-4-[(7-methoxy-1,5-naphthyridin-4-yl)oxy]phenyl]-1-(4-fluorophenyl)-6-methyl-2-oxopyridine-3-carboxamide]
< 0.1	< 0.1	< 0.1	> 0.3	–	–	–	–	COc1cc2nccc(Oc3ccc(NC(=O)c4nc(C)cn(-c5ccc(F)cc5)c4=O)cc3F)c2nc1OC [Compound 684, N-[4-[(6,7-dimethoxy-1,5-naphthyridin-4-yl)oxy]-3-fluorophenyl]-4-(4-fluorophenyl)-6-methyl-3-oxopyrazine-2-carboxamide]
< 0.1	< 0.1	< 0.1	< 0.1	–	–	–	–	COc1cc2nccc(Oc3ccc(NC(=O)c4cnc(C)c(-c5ccc(F)cc5F)c4O)cc3F)c2nc1OC [Compound 395, 5-(2,4-difluorophenyl)-N-[4-[(6,7-dimethoxy-1,5-naphthyridin-4-yl)oxy]-3-fluorophenyl]-4-hydroxy-6-methylpyridine-3-carboxamide]
< 0.1	< 0.1	< 0.1	0.1 to 0.3	–	–	–	–	COc1cc2nccc(Oc3cc(F)c(NC(=O)c4c(C)n(C)c(C)c(-c5ccc(F)cc5)c4=O)cc3F)c2nc1OC [Compound 769, N-[4-[(6,7-dimethoxy-1,5-naphthyridin-4-yl)oxy]-2,5-difluorophenyl]-5-(4-fluorophenyl)-1,2,6-trimethyl-4-oxopyridine-3-carboxamide]
< 0.1	< 0.1	< 0.1	0.1 to 0.3	–	–	–	–	COc1cc2nccc(Oc3ccc(NC(=O)c4c(C)n(CC(F)F)cc(-c5ccc(F)cc5)c4=O)cc3F)c2nc1OC [Compound 702, 1-(2,2-difluoroethyl)-N-[4-[(6,7-dimethoxy-1,5-naphthyridin-4-yl)oxy]-3-fluorophenyl]-5-(4-fluorophenyl)-2-methyl-4-oxopyridine-3-carboxamide]
< 0.1	< 0.1	< 0.1	> 0.3	–	–	–	–	CCOCc1nc(C)c(-c2ccc(F)cc2C)c(O)c1C(=O)Nc1ccc(Oc2ccnc3cc(OC)cnc23)c(F)c1 [Compound 667, 2-(ethoxymethyl)-N-[3-fluoro-4-[(7-methoxy-1,5-naphthyridin-4-yl)oxy]phenyl]-5-(4-fluoro-2-methylphenyl)-4-hydroxy-6-methylpyridine-3-carboxamide]
< 0.1	< 0.1	< 0.1	< 0.1	–	–	–	–	C=C(C)c1cnc2c(Oc3ccc(NC(=O)c4n[nH]c(C)c(-c5ccc(F)cc5)c4=O)cc3F)ccnc2c1 [Compound 464, 5-(4-fluorophenyl)-N-[3-fluoro-4-[(7-prop-1-en-2-yl-1,5-naphthyridin-4-yl)oxy]phenyl]-6-methyl-4-oxo-1H-pyridazine-3-carboxamide]
< 0.1	< 0.1	< 0.1	0.1 to 0.3	–	–	–	–	COc1cnc2c(Oc3ccc(NC(=O)c4c(C)c(C(C)=O)c(C)n(-c5ccc(F)cc5)c4=O)cc3F)ccnc2c1 [Compound 323, 5-Acetyl-N-[3-fluoro-4-[(7-methoxy-1,5-naphthyridin-4-yl)oxy]phenyl]-1-(4-fluorophenyl)-4,6-dimethyl-2-oxopyridine-3-carboxamide]
< 0.1	< 0.1	< 0.1	> 0.3	–	–	–	–	COc1cc2nccc(Oc3ccc(NC(=O)c4cn(CCO)c(CO)c(-c5ccc(F)cc5C)c4=O)cc3F)c2nc1OC [Compound 765, N-[4-[(6,7-dimethoxy-1,5-naphthyridin-4-yl)oxy]-3-fluorophenyl]-5-(4-fluoro-2-methylphenyl)-1-(2-hydroxyethyl)-6-(hydroxymethyl)-4-oxopyridine-3-carboxamide]
